Source: PubChem BioAssay AID192 (DTP/NCI, 2004)
Toxic doses and inconclusive results are not listed.

System: BDF1 mice, B16 melanoma ip, median survival T/C
Test: NCI In Vivo Anticancer Drug Screen. Data for tumor model B16 Melanoma (intraperitoneal) in B6D2F1 (BDF1) mice
Settings: endpoint: median survival time, higher = longer survival
How it was run: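 Vehicle-treated animals serve as the reference (C); treated animals (T) are scored for survival or tumor size after tumor transplantation.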

[1] = dose: 6.25 mg/kg/injection, schedule: Q01DX009 (ip), vehicle: Klucel (hydroxypropylcellulose) (HPC)
[2] = dose: 12.5 mg/kg/injection, schedule: Q01DX009 (ip), vehicle: Klucel (hydroxypropylcellulose) (HPC)
[3] = dose: 100.0 mg/kg/injection, schedule: Q01DX009 (ip), vehicle: Klucel (hydroxypropylcellulose) (HPC)
[4] = dose: 200.0 mg/kg/injection, schedule: Q01DX009 (ip), vehicle: Klucel (hydroxypropylcellulose) (HPC)
[5] = dose: 400.0 mg/kg/injection, schedule: Q01DX009 (ip), vehicle: Klucel (hydroxypropylcellulose) (HPC)
[6] = dose: 5.0 mg/kg/injection, schedule: Q01DX009 (ip), vehicle: saline with Tween-80
[7] = dose: 12.5 mg/kg/injection, schedule: Q01DX009 (ip), vehicle: saline with Tween-80
[8] = dose: 25.0 mg/kg/injection, schedule: Q01DX009 (ip), vehicle: saline with Tween-80
[9] = dose: 50.0 mg/kg/injection, schedule: Q01DX009 (ip), vehicle: Klucel (hydroxypropylcellulose) (HPC)
[10] = dose: 6.25 mg/kg/injection, schedule: Q01DX009 (ip), vehicle: saline
[11] = dose: 25.0 mg/kg/injection, schedule: Q01DX009 (ip), vehicle: saline
[12] = dose: 50.0 mg/kg/injection, schedule: Q01DX009 (ip), vehicle: saline
[13] = dose: 100.0 mg/kg/injection, schedule: Q01DX009 (ip), vehicle: saline
[14] = dose: 25.0 mg/kg/injection, schedule: Q01DX009 (ip), vehicle: Klucel (hydroxypropylcellulose) (HPC)

O=[N+]([O-])/C=C/C(Cl)(Cl)Cl
T/C [1]: 100 % of control | T/C [2]: 96 % of control

C(=N\Nc1nn[nH]n1)/c1ccncc1
T/C [3]: 103 % of control | T/C [4]: 104 % of control

COc1cc2c(c(OC)c1OC)-c1ccc(OC)c(=O)cc1[C@@H](N)CC2
T/C (dose: 0.31 mg/kg/injection, schedule: Q01DX009 (ip), vehicle: saline): 120 % of control | T/C (dose: 2.5 mg/kg/injection, schedule: Q01DX009 (ip), vehicle: Klucel (hydroxypropylcellulose) (HPC)): 89 % of control | T/C (dose: 5.0 mg/kg/injection, schedule: Q01DX009 (ip), vehicle: Klucel (hydroxypropylcellulose) (HPC)): 110 % of control

COc1ccccc1NC(=O)Nc1ccccc1
T/C [3]: 104 % of control | T/C [4]: 103 % of control | T/C [5]: 109 % of control

CCCCN(CC)C(=S)S[Te](SC(=S)N(CC)CCCC)(SC(=S)N(CC)CCCC)SC(=S)N(CC)CCCC
T/C [3]: 110 % of control | T/C [5]: 100 % of control

CSc1cc(=O)n2c3ccccc3c3ccnc1c32
T/C (dose: 0.63 mg/kg/injection, schedule: Q01DX009 (ip), vehicle: saline with Tween-80): 104 % of control | T/C (dose: 1.25 mg/kg/injection, schedule: Q01DX009 (ip), vehicle: saline with Tween-80): 110 % of control | T/C (dose: 2.5 mg/kg/injection, schedule: Q01DX009 (ip), vehicle: saline with Tween-80): 101 % of control | T/C [6]: 108 % of control

O=C(Nc1cccc(Cl)c1)ON1C(=O)C2C(C1=O)C1(Cl)C(Cl)C(Cl)C2(Cl)C1(Cl)Cl (stereo not drawn)
T/C [7]: 87 % of control | T/C [8]: 96 % of control

OCC1OC(n2cnc3c(=S)nc[nH]c32)CC1O (stereo not drawn)
T/C [9]: 97 % of control | T/C [3]: 92 % of control

O=C(Nc1ccc(C(=O)Nc2cc(S(=O)(=O)O)cc3cc(S(=O)(=O)O)cc(O)c23)cc1)c1ccccc1
T/C (dose: 100.0 mg/kg/injection, schedule: Q01DX009 (ip), vehicle: saline with Tween-80): 94 % of control | T/C (dose: 200.0 mg/kg/injection, schedule: Q01DX009 (ip), vehicle: saline with Tween-80): 89 % of control | T/C (dose: 400.0 mg/kg/injection, schedule: Q01DX009 (ip), vehicle: saline with Tween-80): 89 % of control

CN(C)CCC(c1ccccc1)c1cc(Cl)ccn1 (stereo not drawn)
T/C [10]: 100 % of control | T/C (dose: 12.5 mg/kg/injection, schedule: Q01DX009 (ip), vehicle: saline): 103 % of control | T/C [11]: 97 % of control | T/C [12]: 97 % of control | T/C [13]: 99 % of control

CC(=O)OC(C)(C)/C=C/C(=O)[C@](C)(O)[C@H]1[C@H](O)C[C@@]2(C)[C@@H]3CC=C4[C@@H](C=C(O)C(=O)C4(C)C)[C@]3(C)C(=O)C[C@]12C
T/C (dose: 0.25 mg/kg/injection, schedule: Q01DX009 (ip), vehicle: saline with Tween-80): 90 % of control | T/C (dose: 0.5 mg/kg/injection, schedule: Q01DX009 (ip), vehicle: saline with Tween-80): 109 % of control | T/C (dose: 1.0 mg/kg/injection, schedule: Q01DX009 (ip), vehicle: saline with Tween-80): 102 % of control | T/C (dose: 2.0 mg/kg/injection, schedule: Q01DX009 (ip), vehicle: saline with Tween-80): 93 % of control | T/C (dose: 4.0 mg/kg/injection, schedule: Q01DX009 (ip), vehicle: saline with Tween-80): 95 % of control

CCCCCCC(=O)C(CCCC)(C(=O)OCC)C(=O)OCC
T/C [3]: 89 % of control

FC(F)(F)c1ccc2c(c1)N(CCCN1CCN(CCC3OCCCO3)CC1)c1ccccc1S2
T/C (dose: 0.78 mg/kg/injection, schedule: Q01DX009 (ip), vehicle: saline): 116 % of control | T/C (dose: 1.56 mg/kg/injection, schedule: Q01DX009 (ip), vehicle: saline): 118 % of control | T/C (dose: 3.12 mg/kg/injection, schedule: Q01DX009 (ip), vehicle: saline): 90 % of control | T/C [10]: 115 % of control

c1ccc([As+](c2ccccc2)(c2ccccc2)c2ccccc2)cc1
T/C (dose: 1.87 mg/kg/injection, schedule: Q01DX009 (ip), vehicle: Klucel (hydroxypropylcellulose) (HPC)): 122 % of control | T/C (dose: 3.75 mg/kg/injection, schedule: Q01DX009 (ip), vehicle: Klucel (hydroxypropylcellulose) (HPC)): 110 % of control

C=CCOP(=O)(N1CC1C)N1CC1C (stereo not drawn)
T/C [11]: 95 % of control | T/C [12]: 96 % of control | T/C (dose: 50.0 mg/kg/injection, schedule: Q04DX003 (ip), vehicle: saline): 97 % of control | T/C (dose: 100.0 mg/kg/injection, schedule: Q04DX003 (ip), vehicle: saline): 105 % of control

NC1=NN(c2ccccc2)CC1
T/C (dose: 0.5 mg/kg/injection, schedule: Q04DX003 (ip), vehicle: saline with Tween-80): 95 % of control | T/C [6]: 104 % of control | T/C (dose: 10.0 mg/kg/injection, schedule: Q01DX009 (ip), vehicle: saline with Tween-80): 100 % of control | T/C (dose: 10.0 mg/kg/injection, schedule: Q04DX003 (ip), vehicle: saline with Tween-80): 95 % of control | T/C (dose: 20.0 mg/kg/injection, schedule: Q01DX009 (ip), vehicle: saline with Tween-80): 100 % of control | T/C (dose: 20.0 mg/kg/injection, schedule: Q04DX003 (ip), vehicle: saline with Tween-80): 95 % of control

CCO/C=C1\SC(=S)N(c2cccc(C)c2)C1=O
T/C [2]: 94 % of control | T/C [14]: 97 % of control | T/C [9]: 100 % of control | T/C [3]: 87 % of control | T/C (dose: 100.0 mg/kg/injection, schedule: Q04DX003 (ip), vehicle: Klucel (hydroxypropylcellulose) (HPC)): 100 % of control | T/C (dose: 200.0 mg/kg/injection, schedule: Q04DX003 (ip), vehicle: Klucel (hydroxypropylcellulose) (HPC)): 89 % of control | T/C (dose: 400.0 mg/kg/injection, schedule: Q04DX003 (ip), vehicle: Klucel (hydroxypropylcellulose) (HPC)): 92 % of control

C=C1CCN2CCCC12 (stereo not drawn)
T/C (dose: 10.0 mg/kg/injection, schedule: Q01DX009 (ip), vehicle: saline): 107 % of control | T/C (dose: 20.0 mg/kg/injection, schedule: Q01DX009 (ip), vehicle: saline): 104 % of control | T/C (dose: 40.0 mg/kg/injection, schedule: Q01DX009 (ip), vehicle: saline): 100 % of control | T/C (dose: 80.0 mg/kg/injection, schedule: Q01DX009 (ip), vehicle: saline): 95 % of control

CCN(CC)CCOc1ccc2c(c1)C(=O)c1cc(OCCN(CC)CC)ccc1-2
T/C (dose: 13.0 mg/kg/injection, schedule: Q01DX009 (ip), vehicle: saline): 124 % of control | T/C (dose: 21.6 mg/kg/injection, schedule: Q01DX009 (ip), vehicle: saline): 123 % of control | T/C [13]: 124 % of control

COC(=O)C1C(O)C(C)C(O)C(C)C=C(C)C2=C3C(=C(C)C(=O)c4c(O)c(c(C)c(OC(C)=O)c43)NC(=O)C(C)=C/C=C\C(C)C(O)C(C)C1O)OCO2 (stereo not drawn)
T/C [1]: 97 % of control | T/C [2]: 94 % of control | T/C [14]: 88 % of control | T/C (dose: 25.0 mg/kg/injection, schedule: Q01DX009 (ip), vehicle: carboxymethylcellulose (CMC)): 112 % of control | T/C (dose: 50.0 mg/kg/injection, schedule: Q01DX009 (ip), vehicle: carboxymethylcellulose (CMC)): 112 % of control | T/C [3]: 89 % of control

BrC1c2cccc3cccc(c23)C1Br (stereo not drawn)
T/C (dose: 6.25 mg/kg/injection, schedule: Q01DX009 (ip), vehicle: saline with Tween-80): 116 % of control | T/C [7]: 113 % of control | T/C [8]: 124 % of control | T/C (dose: 50.0 mg/kg/injection, schedule: Q01DX009 (ip), vehicle: saline with Tween-80): 121 % of control

COC1C(O)C(C)OC(O[C@@H]2C[C@H]3CC[C@@H]4[C@H](CC[C@]5(C)[C@@H](C6=CC(=O)OC6)CC[C@]45O)[C@@]3(C)[C@H](O)C2)C1O (stereo partly drawn)
T/C [2]: 96 % of control | T/C [14]: 87 % of control | T/C [9]: 95 % of control | T/C [3]: 98 % of control

Cc1c(N)nc([C@H](CC(N)=O)NC[C@H](N)C(N)=O)nc1C(=O)N[C@H](C(=O)N[C@H](C)[C@@H](O)CC(=O)N[C@H](C(=O)NC(O[C@@H]1O[C@@H](C)[C@@H](N)[C@@H](O)[C@H]1O)C(O)c1nc(-c2nc(C(=O)NCCCCN)cs2)cs1)[C@@H](C)O)[C@@H](O[C@@H]1O[C@@H](CO)[C@@H](O)[C@H](O)[C@@H]1O[C@H]1O[C@H](CO)[C@@H](O)[C@H](OC(N)=O)[C@@H]1O)c1c[nH]cn1 (stereo partly drawn)
T/C (dose: 0.8 mg/kg/injection, schedule: Q01DX009 (ip), vehicle: saline): 152 % of control | T/C (dose: 1.6 mg/kg/injection, schedule: Q01DX009 (ip), vehicle: saline): 152 % of control | T/C (dose: 3.2 mg/kg/injection, schedule: Q01DX009 (ip), vehicle: saline): 150 % of control

O=P(NC12CC3CC(CC(C3)C1)C2)(N1CC1)N1CC1
T/C (dose: 4.4 mg/kg/injection, schedule: Q01DX009 (ip), vehicle: Klucel (hydroxypropylcellulose) (HPC)): 100 % of control | T/C (dose: 6.6 mg/kg/injection, schedule: Q01DX009 (ip), vehicle: Klucel (hydroxypropylcellulose) (HPC)): 110 % of control
